Measured values published in patent US20140315889A1, “HYDROXAMATE DERIVATIVES FOR HDAC INHIBITOR, AND THE PHARMACEUTICAL COMPOSITION COMPRISING THEREOF” (CHONG KUN DANG PHARMACEUTICAL CORP., priority 2011, published 2014).

Tests used:
HDAC3 = HDAC3 (Homo sapiens, UniProt O15379); assay: HDAC enzyme activity test, HDAC3; format: biochemical; conditions: Table 11, eleven HDAC isozymes; read-out: Inhibition ability (IC50) against HDAC3
Experimental: Then, 0.3 μg of enzyme and 10 μM of substrate per well were added, reacted at 30° C. for 60 minutes. Thereto, Fluor de Lys® Developer II (BML-KI176) was added and reacted for 30 minutes. […] From the data, the respective IC50 were calculated by GraphPad Prism 4.0 program.

[1] = system: collagen-induced arthritis model; assay: Effectiveness of compound 87 in a collagen-induced arthritis model; format: in vivo, DBA1J mice; conditions: for clinical score decreased, compared with the positive control group: vs ITF2357 50 mg/kg group
Source text: 7-week aged male DBA1J mice were used in the experiment. The animal facility was kept at constant temperature and constant humidity with a 12-hr dark/12-hr light cycle, and the animals were allowed to access food and water ad libitum. The animals were acclimated to the cage for 7 days.
Each arthritis-onset animals were selected and then promptly used in the experiments. The experimental animal groups consist of: • A. two vehicle-control groups administered with only vehicle via s.c. (subcutaneous injection) and p.o. (per oral), • B. a positive control group administered with ITF2357 of 50 mg/kg, and • C. two compound test groups administered with compound 87 in each doses of 10 and 50 mg/kg.
A solution of ITF2357 for administration was prepared using 0.5% methylcellulose as a vehicle. It was administered orally to the animals in a volume of 10 ml/kg once a day for 7 days. A solution of compound 87 for administration was prepared using DMSO as a vehicle just before administration. It was administered in a volume of 2 ml/kg via s.c. once a day for 7 days. Two vehicle-control groups were administered with only vehicle once a day for 7 days via s.c. and p.o. separately.
Bovine type 2 collagen (Chondrex) and complete Freund's adjuvant (Chondrex) are mixed in 1:1 to become an emulsion. Each 0.1 ml of the obtained emulsion was injected to the tail of each mouse intradermally. After 21 days, Bovine type 2 collagen (Chondrex) and incomplete Freund's adjuvant (Chondrex) are mixed in 1:1 to become an emulsion. Each 0.1 ml of the obtained emulsion was injected to the hips of each mouse intradermally for boosting. After boosting, feet of the mice were observed once a day. When clinical score was occurred, the drug administration and its evaluation were started. The criterion of clinical score was according to Experimental Example 3.
All the results were expressed as mean±SEM, and each test group and the control groups (vehicle-control group or positive control group) were compared using one-way ANOVA test (Dunnett's test, p<0.001) with GrapicPad Prism 5.0 program.

Chain of HDAC3 (O15379 whole entry, species assumed): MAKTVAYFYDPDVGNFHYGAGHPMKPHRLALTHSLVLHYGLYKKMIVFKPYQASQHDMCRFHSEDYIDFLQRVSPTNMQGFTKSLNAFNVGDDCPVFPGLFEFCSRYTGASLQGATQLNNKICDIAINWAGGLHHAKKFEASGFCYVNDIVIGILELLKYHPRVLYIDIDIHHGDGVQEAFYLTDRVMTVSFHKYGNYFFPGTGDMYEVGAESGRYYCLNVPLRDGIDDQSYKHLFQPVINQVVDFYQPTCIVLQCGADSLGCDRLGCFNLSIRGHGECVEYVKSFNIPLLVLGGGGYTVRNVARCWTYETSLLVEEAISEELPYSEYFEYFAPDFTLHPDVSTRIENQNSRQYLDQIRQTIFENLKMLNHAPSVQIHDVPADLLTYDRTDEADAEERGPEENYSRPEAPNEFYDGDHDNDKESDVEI
Chain of HDAC3 (Q9Y618 395-489 partner limits assumed, species assumed): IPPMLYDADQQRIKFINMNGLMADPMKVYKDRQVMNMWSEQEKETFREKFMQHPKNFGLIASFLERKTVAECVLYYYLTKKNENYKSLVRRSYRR

| SMILES | IC50 (HDAC3) [nM] | clinical score decreased, compared with the positive control group ([1]; 10 mg/kg s.c. once a day for 7 days) [%] | clinical score decreased, compared with the positive control group ([1]; 50 mpk s.c. once a day for 7 days) [%] | body-weight loss ([1]; collagen-induced arthritis mice, 10 and 50 mg/kg s.c.) |
| --- | --- | --- | --- | --- |
| CN1CCN(C(=O)N(CCCCCCC(=O)NO)c2ccc(-c3ccc4cnn(C)c4c3)cc2)CC1 [CKD-581, reference compound] | 0.693 |  |  |  |
| O=C(NO)c1ccc(Cn2c3c(c4ccccc42)C(=O)C(CN2CCOCC2)CC3)cc1 (stereo not shown) [Compound 87, N-hydroxy-4-((3-(morpholinomethyl)-4-oxo-1,2,3,4-tetrahydrocarbazol-9-yl)methyl)benzamide] |  | 44 | 68 | no observation of body-weight loss |
